# Like-named read-outs stand apart in the source and are kept apart here.
# Experiments:
# [1] = test system: Amaranthus rudis (AMATA), tall water hemp; test: Postemergence herbicide evaluation, growth of Amaranthus rudis (AMATA); assay type: in vivo; conditions: Amaranthus tuberculatus, post-emergence
# [2] = test system: Ambrosia artemisiifolia (AMBEL), common ragweed; test: Postemergence herbicide evaluation, growth of Ambrosia artemisiifolia (AMBEL); assay type: in vivo; conditions: Ambrosia artemisiifolia, post-emergence
# [3] = test system: Abutilon theophrasti (ABUTH), velvetleaf; test: Postemergence herbicide evaluation, growth of Abutilon theophrasti (ABUTH); assay type: in vivo; conditions: Abutilon theophrasti, post-emergence
# [4] = test system: Chenopodium album (CHEAL), common lambsquarters; test: Postemergence herbicide evaluation, growth of Chenopodium album (CHEAL); assay type: in vivo; conditions: Chenopodium album, post-emergence
# [5] = Volatility of compounds measured by thermogravimetric analysis (TGA); assay type: physicochemical
# [6] = test system: weeds ABUTH, AMATA, AMBEL, CHEAL, ERICA; test: Postemergence herbicide evaluation, overall average % weed control (ABUTH, AMATA, AMBEL, CHEAL, ERICA); assay type: in vivo; conditions: post-emergence, read-out: Overall Ave % Weed Control
# [7] = test system: glyphosate resistant Conyza canadensis (L.) (ERICA), horseweed; test: Postemergence herbicide evaluation, growth of Conyza canadensis (ERICA); assay type: in vivo; conditions: Erigeron canadensis, post-emergence, percent reduction in plant size relative to untreated control, read-out: Ave. ERICA; for pest or weed control at 280 g/ha: 280 g ae/ha; for pest or weed control at 560 g/ha: 560 g ae/ha
# [8] = test system: weeds (ABUTH, AMATA, AMBEL, CHEAL, ERICA); test: Postemergence herbicide evaluation, overall average % weed control across ABUTH, AMATA, AMBEL, CHEAL, ERICA; assay type: in vivo; conditions: post-emergence, average over the five weeds, read-out: Overall Ave % Weed Control; for pest or weed control at 280 g/ha: 280 g ae/ha; for pest or weed control at 560 g/ha: 560 g ae/ha
# [9] = 168 h, read-out: Ave. AMATA, percent reduction in plant size relative to the untreated control
# [10] = 336 h, read-out: Ave. AMATA, percent reduction in plant size relative to the untreated control
# [11] = 504 h, read-out: Ave. AMATA, percent reduction in plant size relative to the untreated control
# [12] = 168 h, read-out: AVE. AMBEL, percent reduction in plant size relative to the untreated control
# [13] = 336 h, read-out: AVE. AMBEL, percent reduction in plant size relative to the untreated control
# [14] = 504 h, read-out: AVE. AMBEL, percent reduction in plant size relative to the untreated control
# [15] = 168 h, read-out: AVE. ABUTH, percent reduction in plant size relative to the untreated control
# [16] = 336 h, read-out: AVE. ABUTH, percent reduction in plant size relative to the untreated control
# [17] = 504 h, read-out: AVE. ABUTH, percent reduction in plant size relative to the untreated control
# [18] = 168 h, read-out: Ave. CHEAL, percent reduction in plant size relative to the untreated control
# [19] = 336 h, read-out: Ave. CHEAL, percent reduction in plant size relative to the untreated control
# [20] = 504 h, read-out: Ave. CHEAL, percent reduction in plant size relative to the untreated control
smiles,measurement,setting,value
"O=C(COc1ccc(Cl)cc1Cl)OCc1ccc(COC(=O)COc2ccc(Cl)cc2Cl)cc1 [Compound B1, 1,4-Phenylenebis(methylene) bis(2-(2,4-dichlorophenoxy)acetate)]",pest or weed control at 280 g/ha,[1]; [9],40%
same,pest or weed control at 560 g/ha,[1]; [9],40%
same,pest or weed control at 280 g/ha,[1]; [10],25%
same,pest or weed control at 560 g/ha,[1]; [10],35%
same,pest or weed control at 280 g/ha,[1]; [11],30%
same,pest or weed control at 560 g/ha,[1]; [11],48%
same,pest or weed control at 280 g/ha,[2]; [12],23%
same,pest or weed control at 560 g/ha,[2]; [12],20%
same,pest or weed control at 280 g/ha,[2]; [13],18%
same,pest or weed control at 560 g/ha,[2]; [13],18%
same,pest or weed control at 280 g/ha,[2]; [14],0%
same,pest or weed control at 560 g/ha,[2]; [14],5%
same,pest or weed control at 280 g/ha,[3]; [15],5%
same,pest or weed control at 560 g/ha,[3]; [15],13%
same,pest or weed control at 280 g/ha,[3]; [16],8%
same,pest or weed control at 560 g/ha,[3]; [16],5%
same,pest or weed control at 280 g/ha,[3]; [17],8%
same,pest or weed control at 560 g/ha,[3]; [17],3%
same,pest or weed control at 280 g/ha,[4]; [18],15%
same,pest or weed control at 560 g/ha,[4]; [18],55%
same,pest or weed control at 280 g/ha,[4]; [19],25%
same,pest or weed control at 560 g/ha,[4]; [19],53%
same,pest or weed control at 280 g/ha,[4]; [20],20%
same,pest or weed control at 560 g/ha,[4]; [20],33%
same,"TGA Data (rate of weight loss, volatility)",[5],0.03 µg/min
same,pest or weed control at 280 g/ha,[6]; 168 h,19%
same,pest or weed control at 560 g/ha,[6]; 168 h,31%
same,pest or weed control at 280 g/ha,[6]; 336 h,21%
same,pest or weed control at 560 g/ha,[6]; 336 h,29%
same,pest or weed control at 280 g/ha,[6]; 504 h,13%
same,pest or weed control at 560 g/ha,[6]; 504 h,21%
"O=C(COc1ccc(Cl)cc1Cl)OCCOCCOC(=O)COc1ccc(Cl)cc1Cl [Compound B2, Oxybis(ethane-2,1-diyl) bis(2-(2,4-dichlorophenoxy)acetate)]","TGA Data (rate of weight loss, volatility)",[5],0.04 µg/min
same,pest or weed control at 280 g/ha,[6]; 168 h,73%
same,pest or weed control at 560 g/ha,[6]; 168 h,75%
same,pest or weed control at 280 g/ha,[6]; 336 h,83%
same,pest or weed control at 560 g/ha,[6]; 336 h,89%
same,pest or weed control at 560 g/ha,[6]; 504 h,94%
"O=C(COc1ccc(Cl)cc1Cl)ON1CCCCC1 [Compound A11, Piperidin-1-yl 2-(2,4-dichlorophenoxy)acetate]",pest or weed control at 280 g/ha,"[1]; 168 h, 280 g ae/ha, 7 DAA, percent reduction in plant size relative to untreated control, read-out: Ave. AMATA",73%
same,pest or weed control at 560 g/ha,"[1]; 168 h, 560 g ae/ha, 7 DAA, percent reduction in plant size relative to untreated control, read-out: Ave. AMATA",75%
same,pest or weed control at 280 g/ha,"[1]; 336 h, 280 g ae/ha, 14 DAA, percent reduction in plant size relative to untreated control, read-out: Ave. AMATA",89%
same,pest or weed control at 560 g/ha,"[1]; 336 h, 560 g ae/ha, 14 DAA, percent reduction in plant size relative to untreated control, read-out: Ave. AMATA",85%
same,pest or weed control at 280 g/ha,"[1]; 504 h, 280 g ae/ha, 21 DAA, percent reduction in plant size relative to untreated control, read-out: Ave. AMATA",85%
same,pest or weed control at 560 g/ha,"[1]; 504 h, 560 g ae/ha, 21 DAA, percent reduction in plant size relative to untreated control, read-out: Ave. AMATA",88%
same,pest or weed control at 280 g/ha,"[2]; 168 h, 280 g ae/ha, 7 DAA, percent reduction in plant size relative to untreated control, read-out: AVE. AMBEL",65%
same,pest or weed control at 560 g/ha,"[2]; 168 h, 560 g ae/ha, 7 DAA, percent reduction in plant size relative to untreated control, read-out: AVE. AMBEL",78%
same,pest or weed control at 280 g/ha,"[2]; 336 h, 280 g ae/ha, 14 DAA, percent reduction in plant size relative to untreated control, read-out: AVE. AMBEL",90%
same,pest or weed control at 560 g/ha,"[2]; 336 h, 560 g ae/ha, 14 DAA, percent reduction in plant size relative to untreated control, read-out: AVE. AMBEL",97%
same,pest or weed control at 280 g/ha,"[2]; 504 h, 280 g ae/ha, 21 DAA, percent reduction in plant size relative to untreated control, read-out: AVE. AMBEL",95%
same,pest or weed control at 560 g/ha,"[2]; 504 h, 560 g ae/ha, 21 DAA, percent reduction in plant size relative to untreated control, read-out: AVE. AMBEL",100%
same,pest or weed control at 280 g/ha,"[3]; 168 h, 280 g ae/ha, 7 DAA, percent reduction in plant size relative to untreated control, read-out: AVE. ABUTH",83%
same,pest or weed control at 560 g/ha,"[3]; 168 h, 560 g ae/ha, 7 DAA, percent reduction in plant size relative to untreated control, read-out: AVE. ABUTH",85%
same,pest or weed control at 280 g/ha,"[3]; 336 h, 280 g ae/ha, 14 DAA, percent reduction in plant size relative to untreated control, read-out: AVE. ABUTH",93%
same,pest or weed control at 560 g/ha,"[3]; 336 h, 560 g ae/ha, 14 DAA, percent reduction in plant size relative to untreated control, read-out: AVE. ABUTH",89%
same,pest or weed control at 280 g/ha,"[3]; 504 h, 280 g ae/ha, 21 DAA, percent reduction in plant size relative to untreated control, read-out: AVE. ABUTH",99%
same,pest or weed control at 560 g/ha,"[3]; 504 h, 560 g ae/ha, 21 DAA, percent reduction in plant size relative to untreated control, read-out: AVE. ABUTH",95%
same,pest or weed control at 280 g/ha,"[4]; 168 h, 280 g ae/ha, 7 DAA, percent reduction in plant size relative to untreated control, read-out: Ave. CHEAL",68%
same,pest or weed control at 560 g/ha,"[4]; 168 h, 560 g ae/ha, 7 DAA, percent reduction in plant size relative to untreated control, read-out: Ave. CHEAL",70%
same,pest or weed control at 280 g/ha,"[4]; 336 h, 280 g ae/ha, 14 DAA, percent reduction in plant size relative to untreated control, read-out: Ave. CHEAL",75%
same,pest or weed control at 560 g/ha,"[4]; 336 h, 560 g ae/ha, 14 DAA, percent reduction in plant size relative to untreated control, read-out: Ave. CHEAL",80%
same,pest or weed control at 280 g/ha,"[4]; 504 h, 280 g ae/ha, 21 DAA, percent reduction in plant size relative to untreated control, read-out: Ave. CHEAL",80%
same,pest or weed control at 560 g/ha,"[4]; 504 h, 560 g ae/ha, 21 DAA, percent reduction in plant size relative to untreated control, read-out: Ave. CHEAL",97%
same,pest or weed control at 280 g/ha,"[7]; 168 h, 7 DAA",65%
same,pest or weed control at 560 g/ha,"[7]; 168 h, 7 DAA",68%
same,pest or weed control at 280 g/ha,"[7]; 336 h, 14 DAA",90%
same,pest or weed control at 560 g/ha,"[7]; 336 h, 14 DAA",85%
same,pest or weed control at 280 g/ha,"[7]; 504 h, 21 DAA",95%
same,pest or weed control at 560 g/ha,"[7]; 504 h, 21 DAA",95%
same,"TGA Data (rate of weight loss, volatility)",[5],4 µg/min
same,pest or weed control at 280 g/ha,"[8]; 168 h, 7 DAA",71%
same,pest or weed control at 560 g/ha,"[8]; 168 h, 7 DAA",75%
same,pest or weed control at 280 g/ha,"[8]; 336 h, 14 DAA",87%
same,pest or weed control at 560 g/ha,"[8]; 336 h, 14 DAA",87%
same,pest or weed control at 280 g/ha,"[8]; 504 h, 21 DAA",91%
same,pest or weed control at 560 g/ha,"[8]; 504 h, 21 DAA",95%

# Source: patent US20260042731A1, “(2,4-DICHLOROPHENOXY)ACETIC ACID ANALOGS” (CORTEVA AGRISCIENCE LLC, priority 2022, published 2026)
